These molecules were tested against KRAS G12C (Homo sapiens (Human), UniProt P01116, C118A/G12C) (assay: 2 h coupled exchange assay). Details: Avg 2 h Coupled exchange IC50, 2 h compound pre-incubation.
Type: biochemical
Procedure: The term “2 h coupled exchange assay” or “20 h coupled exchange assay” as used herein refers to the assay described in the Section entitled “BIOLOGICAL EVALUATION.”

Chain of KRAS G12C (P01116 other isoform, or with tags, fused parts or gaps G12C/C118A): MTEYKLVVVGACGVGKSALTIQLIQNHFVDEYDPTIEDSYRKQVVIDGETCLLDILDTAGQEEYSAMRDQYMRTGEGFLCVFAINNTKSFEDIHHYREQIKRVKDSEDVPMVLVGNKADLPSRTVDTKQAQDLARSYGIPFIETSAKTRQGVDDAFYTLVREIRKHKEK

Compound	IC50
C=CC(=O)N1CC2(CCN(c3nc4c(c(-c5c(C)ccc6[nH]ncc56)c3F)C[C@H]3C[C@@H]4C3(C)C)C2)C1 (single isomer, unassigned) [Example 14-74]	1560 nM
C=CC(=O)N1CC2(CCN(c3nc4c(c(-c5ccc(F)c6sc(N)nc56)c3C#N)COC(C)(C)C4)C2)C1 (single isomer, unassigned) [Example 14-58, (M)-4-(2-amino-7-fluoro-1,3-benzothiazol-4-yl)-7,7-dimethyl-2-(2-(2-propenoyl)-2,6-diazaspiro[3.4]octan-6-yl)-7,8-dihydro-5H-pyrano[4,3-b]pyridine-3-carbonitrile]	357 nM
C=CC(=O)N1CC2(CCN(c3nc4cc(-c5ccnn5C)ccc4c(-c4cc(O)c(F)cc4F)c3C)C2)C1 [Example 16-12, 1-(6-(4-(2,4-difluoro-5-hydroxyphenyl)-3-methyl-7-(1-methyl-1H-pyrazol-5-yl)-2-quinolinyl)-2,6-diazaspiro[3.4]octan-2-yl)-2-propen-1-one]	488 nM
C=CC(=O)N1CC2(CCN(c3nc4c(c(-c5c(C)c(Cl)cc6cnn(C)c56)c3C)COC(C)(C)C4)C2)C1 (single isomer, unassigned) [Example 14-88, (M)-1-(6-(4-(5-chloro-1,6-dimethyl-1H-indazol-7-yl)-3,7,7-trimethyl-7,8-dihydro-5H-pyrano[4,3-b]pyridin-2-yl)-2,6-diazaspiro[3.4]octan-2-yl)-2-propen-1-one]	10400 nM
C=CC(=O)N1CC2(CCN(c3nc4c(c(-c5c(C)c(Cl)cc6cnn(C)c56)c3F)COC(C)(C)C4)C2)C1 [Example 14-55, 1-(6-(4-(5-chloro-1,6-dimethyl-1H-indazol-7-yl)-3-fluoro-7,7-dimethyl-7,8-dihydro-5H-pyrano[4,3-b]pyridin-2-yl)-2,6-diazaspiro[3.4]octan-2-yl)-2-propen-1-one]	209 nM
C=CC(=O)N1CC2(CCN(c3nc4c(c(-c5cccc6c5cnn6C)c3C#N)C[C@H]3C[C@@H]4C3(C)C)C2)C1 [Example 14-24, (1R,9R)-10,10-dimethyl-6-(1-methyl-1H-indazol-4-yl)-4-(2-(2-propenoyl)-2,6-diazaspiro[3.4]octan-6-yl)-3-azatricyclo[7.1.1.0^2,7]undeca-2,4,6-triene-5-carbonitrile]	506 nM
C=CC(=O)N1CC2(CCN(c3nc4c(c(-c5cc(NS(C)(=O)=O)cc6ccccc56)c3C#N)CC(C)(C)C4)C2)C1 [Example 25-1, N-(4-(3-cyano-6,6-dimethyl-2-(2-(2-propenoyl)-2,6-diazaspiro[3.4]octan-6-yl)-6,7-dihydro-5H-cyclopenta[b]pyridin-4-yl)-2-naphthalenyl)methanesulfonamide]	450 nM
C=CC(=O)N1CC2(CCN(c3nc4c(c(-c5c(C)c(Cl)cc6cnn(C)c56)c3F)COC(C)(C)C4)C2)C1 (single isomer, unassigned) [Example 14-78, (M)-1-(6-(4-(5-chloro-1,6-dimethyl-1H-indazol-7-yl)-3-fluoro-7,7-dimethyl-7,8-dihydro-5H-pyrano[4,3-b]pyridin-2-yl)-2,6-diazaspiro[3.4]octan-2-yl)-2-propen-1-one]	23 nM
C=CC(=O)N1CC2(CCN(c3nc4cc(-n5ccnc5C)ccc4c(-c4ccccc4Cl)c3C)[C@H]2C)C1 (single isomer, unassigned) [Example 15-6]	3580 nM
C=CC(=O)N1CC2(CCN(c3nc4c(c(-c5cccc6cc(O)ccc56)c3C)COC(C)(C)C4)C2)C1 (single isomer, unassigned) [Example 14-45, (M)-1-(6-(4-(6-hydroxy-1-naphthalenyl)-3,7,7-trimethyl-7,8-dihydro-5H-pyrano[4,3-b]pyridin-2-yl)-2,6-diazaspiro[3.4]octan-2-yl)-2-propen-1-one]	7480 nM

Same assay, conditions: Avg 2 h Coupled exchange IC50, 2 h compound pre-incubation, SOS-mediated nucleotide exchange

Compound	IC50
C=CC(=O)N1CC2(CCN(c3nc4c(c(-c5ccc(O)c6ccccc56)c3C#N)COC(C)(C)C4)C2)C1 [Example 12-31, 4-(4-hydroxy-1-naphthalenyl)-7,7-dimethyl-2-(2-(2-propenoyl)-2,6-diazaspiro[3.4]octan-6-yl)-7,8-dihydro-5H-pyrano[4,3-b]pyridine-3-carbonitrile]	189 nM
C=CC(=O)N1CC2(CCN(c3nc4c(c(-c5cnccc5C)c3C#N)C[C@H]3C[C@@H]4C3(C)C)C2)C1 (single isomer, unassigned) [Example 13-123]	856 nM
CN(C)C/C=C/C(=O)N1CC2(CCN(c3nc4c(c(-c5cc(O)cc6ccccc56)c3C#N)CC[C@H]3C[C@@H]43)C2)C1 (racemic) [Example 13-86, (M)-(6aR,7aS)-2-(2-((2E)-4-(dimethylamino)-2-butenoyl)-2,6-diazaspiro[3.4]octan-6-yl)-4-(3-hydroxy-1-naphthalenyl)-6,6a,7,7a-tetrahydro-5H-cyclopropa[h]quinoline-3-carbonitrile and (M)-(6aS,7aR)-2-(2-((E)-4-(dimethylamino)but-2-enoyl)-2,6-diazaspiro[3.4]octan-6-yl)-4-(3-hydroxynaphthalen-1-yl)-6,6a,7,7a-tetrahydro-5H-cyclopropan[h]quinoline-3-carbonitrile]	20400 nM
C=CC(=O)N1CC2(CCN(c3nc4c(c(-c5c(C)ccc6cnn(C)c56)c3C#N)CO[C@H](C3CC3)C4)C2)C1 (single isomer, unassigned) [Example 13-121]	849 nM
C=CC(=O)N1CC2(CCN(c3nc4cc(F)ccc4c(-c4c(C)ccc5[nH]ncc45)c3C)[C@H]2C)C1 (single isomer, unassigned) [Example 2-60]	4670 nM
CN(C)C/C=C/C(=O)N1CC2(CCN(c3nc4c(c(-c5cc(O)cc6ccccc56)c3C#N)CCC3CC43)C2)C1 [Example 13-85, (6aR,7aS)-2-(2-((2E)-4-(dimethylamino)-2-butenoyl)-2,6-diazaspiro[3.4]octan-6-yl)-4-(3-hydroxy-1-naphthalenyl)-6,6a,7,7a-tetrahydro-5H-cyclopropa[h]quinoline-3-carbontirile|(6aS,7aR)-2-(2-((2E)-4-(dimethylamino)-2-butenoyl)-2,6-diazaspiro[3.4]octan-6-yl)-4-(3-hydroxy-1-naphthalenyl)-6,6a,7,7a-tetrahydro-5H-cyclopropa[h]quinoline-3-carbonitrile]	316 nM
C=CC(=O)N1CC2(CCN(c3nc4c(c(-c5c(C)ccc6[nH]ncc56)c3C#N)[C@@H]3CC[C@H]4C3)C2)C1 (single isomer, unassigned) [Example 14-6]	1420 nM
C=C(Br)C(=O)N1CC2(CCN(c3nc4c(F)cccc4c(-c4c(C)ccc5[nH]ncc45)c3C#N)C2)C1 [Example 1-51, 2-(2-(2-bromo-2-propenoyl)-2,6-diazaspiro[3.4]octan-6-yl)-8-fluoro-4-(5-methyl-1H-indazol-4-yl)-3-quinolinecarbonitrile]	791 nM
C=CC(=O)N1CC2(CCN(c3nc4c(c(-c5ccc(Cl)c6ccn(C)c56)c3C#N)COC(C)(C)C4)C2)C1 [Example 12-5, 4-(4-chloro-1-methyl-1H-indol-7-yl)-7,7-dimethyl-2-(2-(2-propenoyl)-2,6-diazaspiro[3.4]octan-6-yl)-7,8-dihydro-5H-pyrano[4,3-b]pyridine-3-carbonitrile]	463 nM
C=CC(=O)N1CC2(CCN(c3nc4c(c(-c5cc(O)c(F)c6ccccc56)c3C#N)CC(C)(C)C4)C2)C1 [Example 13-70, 4-(4-fluoro-3-hydroxy-1-naphthalenyl)-6,6-dimethyl-2-(2-(2-propenoyl)-2,6-diazaspiro[3.4]octan-6-yl)-6,7-dihydro-5H-cyclopenta[b]pyridine-3-carbonitrile]	291 nM
C=CC(=O)N1CC2(CCN(c3nc4c(c(-c5cc(O)cc6ccncc56)c3C#N)C[C@H]3C[C@@H]4C3(C)C)C2)C1 [Example 2-41, (1R,9R)-6-(6-hydroxy-8-isoquinolinyl)-10,10-dimethyl-4-(2-(2-propenoyl)-2,6-diazaspiro[3.4]octan-6-yl)-3-azatricyclo[7.1.1.0^2,7]undeca-2,4,6-triene-5-carbonitrile]	113 nM
C=CC(=O)N1CC2(CCN(c3nc4c(c(-c5c(O)cccc5Cl)c3C#N)C[C@H]3C[C@@H]4C3)C2)C1 (single isomer, unassigned) [Example 13-67]	506 nM
C=CC(=O)N1CC2(CCN(c3nc4ccccc4c(-c4c(Cl)ccc5[nH]ncc45)c3C)C2)C1 [Example 2-29, 1-(6-(4-(5-chloro-1H-indazol-4-yl)-3-methyl-2-quinolinyl)-2,6-diazaspiro[3.4]octan-2-yl)-2-propen-1-one]	903 nM
C=CC(=O)N1CC2(CCN(c3nc4c(c(-c5cc(Cl)cc6ccn(C)c56)c3C#N)COC(C)(C)C4)C2)C1 (single isomer, unassigned) [Example 12-9, (P)-4-(5-chloro-1-methyl-1H-indol-7-yl)-7,7-dimethyl-2-(2-(2-propenoyl)-2,6-diazaspiro[3.4]octan-6-yl)-7,8-dihydro-5H-pyrano[4,3-b]pyridine-3-carbonitrile]	443 nM
C=CC(=O)N1CC2(CCN(c3nc4c(c(-c5c(C)ccc6cnn(C)c56)c3C#N)COC4(C)C)C2)C1 [Example 13-55, 4-(1,6-dimethyl-1H-indazol-7-yl)-7,7-dimethyl-2-(2-(2-propenoyl)-2,6-diazaspiro[3.4]octan-6-yl)-5,7-dihydrofuro[3,4-b]pyridine-3-carbonitrile]	877 nM
C=CC(=O)N1CC2(CCN(c3nc4c(c(-c5c(C)ccc6cnn(C)c56)c3C#N)C[C@H]3C[C@@H]4C3(C)C)C2)C1 (single isomer, unassigned) [Example 13-105]	14700 nM
C=CC(=O)N1CC2(CCN(c3nc4c(c(-c5ccnn5C)c3C#N)CC[C@H](c3ccnn3C)C4)C2)C1 (single isomer, unassigned) [Example 13-28]	266 nM
C=CC(=O)N1CC2(CCN(c3nc4c(c(-c5cc(O)c(F)c6ccccc56)c3C#N)CC[C@H]3C[C@@H]43)C2)C1 (single isomer, unassigned) [Example 13-75]	17000 nM
